Experimental data published in publication PMC12697872, “Rethinking the AI Paradigm for Solubility Prediction of Drug‑Like Compounds with Dual‐Perspective Modeling and Experimental Validation” (Advanced Science, 2025).
Where two headings read alike, the source gives them in different places.

Columns and labels:
[1] = 1H NMR on the saturated aqueous solution; type: physicochemical
Procedure: Each compound was tested in triplicate to ensure accuracy.

[2] = cited from earlier work; for LogS(mol/L): SC2-2 dataset (Second Solubility Challenge, loose subset), aqueous solubility; for Class: SC2-2 dataset, aqueous solubility class 0-6
[3] = cited from earlier work
[4] = CASR-2 dataset, aqueous solubility class 0-6; cited from earlier work

CCCC(=O)OC[C@@H](OC(=O)CCC)[C@@H](OC(=O)CCC)[C@H](Cn1c2nc(=O)[nH]c(=O)c-2nc2cc(C)c(C)cc21)OC(=O)CCC [riboflavin tetrabutyrate]
Solute in saturated aqueous solution by 1H NMR [1]: no existence of solute in the solution

COc1cc(NS(=O)(=O)c2ccc(N)cc2)nc(OC)n1 [COc1cc(NS(=O)(=O)c2ccc(N)cc2)nc(OC)n1]
LogS(mol/L) [2]: -3.74 mol/L
Class [2]: 6 (Practically insoluble or insoluble (6))

O=c1[nH]cnc2c1ncn2[C@H]1CC[C@@H](CO)O1 [O=c1[nH]cnc2c1ncn2[C@H]1CC[C@@H](CO)O1]
Class [2]: 3 (Sparingly soluble (3))

COC1C=COC2(C)Oc3c(C)c(O)c4c(c3C2=O)C2=NC3(CCN(CC(C)C)CC3)NC2=C(NC(=O)C(C)=CC=CC(C)C(O)C(C)C(O)C(C)C(OC(C)=O)C1C)C4=O (stereo not shown)
LogS(mol/L) [2]: -4.09 mol/L
Class [2]: 6 (Practically insoluble or insoluble (6))

CC(C)C[C@H]1C(=O)N2CCC[C@H]2[C@]2(O)O[C@](NC(=O)[C@@H]3C=C4c5cccc6[nH]c(Br)c(c56)C[C@H]4N(C)C3)(C(C)C)C(=O)N12
LogS(mol/L) [2]: -5.5 mol/L
Class [2]: 6 (Practically insoluble or insoluble (6))

[2H]c1c([2H])c([2H])c2c(c1[2H])C([2H])([2H])C([2H])([2H])C([2H])([2H])C2([2H])[2H]
LogS ([3]; CASR-1 curated training data, aqueous, 25 ± 2 °C): -0.8582 mol/L
LogS(mol/L) ([3]; sheet Uncurated data, compiled records): -0.8582 mol/L
Class [4]: 3 (Sparingly soluble (3))

O=C1[C@H](CC[C@H](O)c2ccc(F)cc2)[C@@H](c2ccc(O)cc2)N1c1ccc(F)cc1
LogS(mol/L) [2]: -4.94 mol/L
Class [2]: 6 (Practically insoluble or insoluble (6))
